Laboratory results as given in the RepoRT retention time repository (doi:10.1039/c4mb00346b).

experiment: HILIC, Merck SeQuant ZIC-pHILIC, 150 × 2.1 mm, 5 µm, 0.1 mL/min, estimated dead time 3.3 min; A: acetonitrile; B: water + 10 mM ammonium carbonate; gradient (min/%B) 0/20 30/80; details: stereoisomer not certain

LC retention time | Compound
14.7 min | O=P(O)(O)OCC1OC(OC2OC(CO)C(O)C(O)C2O)C(O)C(O)C1O (stereo not given) [Trehalose-6-phosphate]
13.3 min | O=C(O)CC(O)C(=O)O (stereo not given) [Malate]
9.8 min | CC(C)C(N)C(=O)O (stereo not given) [Valine]
11.5 min | Nc1ncnc2c1ncn2C1OC(COP(=O)(O)O)C(O)C1O (stereo not given) [AMP]
13.7 min | O=C(CO)C(O)C(O)C(O)C(O)COP(=O)(O)O (stereo not given) [Sedoheptulose-7-phosphate]
4.2 min | CCCCCCCCCC(=O)OC(CC(=O)[O-])C[N+](C)(C)C (stereo not given) [Decanoyl-carnitine]
14.8 min | NC(=O)C1=CN(C2OC(COP(=O)(O)OP(=O)(O)OCC3OC(n4cnc5c(N)ncnc54)C(OP(=O)(O)O)C3O)C(O)C2O)C=CC1 (stereo not given) [NADPH]
12.2 min | O=P(O)(O)OC(CO)CO [Glycerol-2-phosphate]
13.3 min | NC(CCCCNC(CCC(=O)O)C(=O)O)C(=O)O (stereo not given) [Saccharopine]
20.7 min | C[N+](C)(C)CCCCC(N)C(=O)[O-] (stereo not given) [Trimethyl-lysine]
9.7 min | C[N+](C)(C)C(Cc1cnc[nH]1)C(=O)[O-] (stereo not given) [Trimethyl-histidine (hercynine)]
9.8 min | Nc1nc2c(ncn2C2OC(CO)C(O)C2O)c(=O)[nH]1 (stereo not given) [Guanosine]
20.8 min | NCCCC(N)C(=O)O (stereo not given) [Ornithine]
7.1 min | Nc1ncnc2c1ncn2C1OC2COP(=O)(O)OC2C1O (stereo not given) [3',5'-cAMP]
7.2 min | O=c1cc[nH]c(=O)[nH]1 [Uracil]
7.1 min | O=c1ccn(C2OC(CO)C(O)C2O)c(=O)[nH]1 (stereo not given) [Uridine]
15.1 min | C=C(OP(=O)(O)O)C(=O)[O-] [Phosphoenolpyruvate]
7.9 min | CSc1ncc(CC(C(=O)[O-])[N+](C)(C)C)[nH]1 (stereo not given) [S-Methyl-ergothioneine]
12.6 min | O=C(O)CCC(=O)O [Succinate]
16.5 min | O=C(O)C1OC(OP(=O)(O)OP(=O)(O)OCC2OC(n3ccc(=O)[nH]c3=O)C(O)C2O)C(O)C(O)C1O (stereo not given) [UDP-glucuronate]
8.6 min | C[N+](C)(C)CC(=O)[O-] [Betaine]
12.5 min | CC(=O)NC(CC(=O)O)C(=O)O (stereo not given) [N-Acetyl-aspartate]
13 min | C[N+](C)(C)CCOP(=O)(O)OP(=O)([O-])OCC1OC(n2ccc(N)nc2=O)C(O)C1O (stereo not given) [CDP-choline]
15 min | O=C(O)C(O)C(O)C(O)C(O)COP(=O)(O)O (stereo not given) [6-Phosphogluconate]

LC retention time | Compound
8.7 min | NC(Cc1c[nH]c2ccccc12)C(=O)O (stereo not given) [Tryptophan]
12.1 min | CN(CC(=O)O)C(=N)N [Creatine]
11.1 min | NC(=O)C1=CN(C2OC(COP(=O)(O)OP(=O)(O)OCC3OC(n4cnc5c(N)ncnc54)C(O)C3O)C(O)C2O)C=CC1 (stereo not given) [NADH]
11.7 min | CC(O)C(N)C(=O)O (stereo not given) [Threonine]
20 min | CN(C)C(N)=NCCCC(N)C(=O)O (stereo not given) [Dimethyl-arginine]
8.6 min | CCC(C)C(N)C(=O)O (stereo not given) [Isoleucine]
16.4 min | Nc1nc2c(ncn2C2OC(COP(=O)(O)OP(=O)(O)OP(=O)(O)O)C(O)C2O)c(=O)[nH]1 (stereo not given) [GTP]
12.1 min | NC(CCC(=O)O)C(=O)O (stereo not given) [Glutamate]
7.2 min | CCC(=O)OC(CC(=O)[O-])C[N+](C)(C)C (stereo not given) [Propionyl-carnitine]
7.1 min | COC(=O)C(N)CCC(=O)O (stereo not given) [Glutamate methyl ester]
6.1 min | CC(C)(CO)C(O)C(=O)NCCC(=O)O (stereo not given) [Pantothenate]
7.3 min | NC(Cc1ccccc1)C(=O)O (stereo not given) [Phenylalanine]
13.2 min | Nc1ccn(C2OC(COP(=O)(O)O)C(O)C2O)c(=O)n1 (stereo not given) [CMP]
14.2 min | C[S+](CCC(N)C(=O)[O-])CC1OC(n2cnc3c(N)ncnc32)C(O)C1O (stereo not given) [S-Adenosyl-methionine]
11.4 min | O=C(O)C(O)C(O)C(O)C(O)CO (stereo not given) [Gluconate]
12.6 min | CC(O)(CC(=O)O)C(=O)O (stereo not given) [Citramalate]
11.2 min | CCC(NC(=O)CCC(N)C(=O)O)C(=O)NCC(=O)O (stereo not given) [Ophthalmic acid]
14.2 min | O=P(O)(O)OCC1OC(O)C(O)C(O)C1O (stereo not given) [Glucose-6-phosphate]
12.9 min | O=C(O)CCC(=O)C(=O)O [2-Oxoglutarate]
8.7 min | CSCCC(N)C(=O)O (stereo not given) [Methionine]
12.1 min | C[N+](C)(C)C(Cc1cnc([S-])[nH]1)C(=O)O (stereo not given) [Ergothioneine]
4.4 min | O=C(O)CNC(=O)c1ccccc1 [Hippurate]
12.3 min | CC(=O)NC(CCC[NH+]=C(N)N)C(=O)[O-] (stereo not given) [N-Acetyl-arginine]
24.8 min | NC(N)=NCCCC(N)C(=O)O (stereo not given) [Arginine]

LC retention time | Compound
12.7 min | CC(=O)NC(CCCC[NH3+])C(=O)[O-] (stereo not given) [N2-Acetyl-lysine]
5.4 min | CC(C)CC(=O)OC(CC(=O)[O-])C[N+](C)(C)C (stereo not given) [Isovaleryl-carnitine]
14.1 min | Nc1nc2c(ncn2C2OC(COP(=O)(O)O)C(O)C2O)c(=O)[nH]1 (stereo not given) [GMP]
4.9 min | O=S(=O)(O)Oc1c[nH]c2ccccc12 [Indoxyl-sulfate]
4.7 min | NC(=O)c1cccnc1 [Nicotinamide]
7.9 min | C[N+]1(C)CCCC1C(=O)[O-] (stereo not given) [Dimethyl-proline (stachydrine)]
6.2 min | CCCC(=O)OC(CC(=O)[O-])C[N+](C)(C)C (stereo not given) [Butyryl-carnitine]
10.2 min | Cn1cnc(CC(N)C(=O)O)c1 (stereo not given) [Methyl-histidine]
6.2 min | O=C(O)CCCCC1SCC2NC(=O)NC21 (stereo not given) [Biotin]
8.5 min | CC(=O)OC(CC(=O)[O-])C[N+](C)(C)C (stereo not given) [Acetyl-carnitine]
11.1 min | CC(=O)NC(CCCN)C(=O)O (stereo not given) [N-Acetyl-ornithine]
13.3 min | O=P(O)(O)OCC1OC(O)(CO)C(O)C1O (stereo not given) [Fructose-6-phosphate]
4.1 min | CCCCCCCC(=O)OC(CC(=O)[O-])C[N+](C)(C)C (stereo not given) [Octanoyl-carnitine]
10.4 min | O=C(O)C1(O)CC(O)C(O)C(O)C1 (stereo not given) [Quinic acid]
4.8 min | CCCCCC(=O)OC(CC(=O)[O-])C[N+](C)(C)C (stereo not given) [Hexanoyl-carnitine]
10.9 min | C[N+](C)(C)CC(O)CC(=O)[O-] (stereo not given) [Carnitine]
14.4 min | OC1C(O)C(O)C(O)C(O)C1O (stereo not given) [myo-Inositol]
12.2 min | NC(CCCC(=O)O)C(=O)O (stereo not given) [2-Aminoadipate]
14.4 min | NC(=O)c1ccc[n+](C2OC(COP(=O)(O)OP(=O)(O)OCC3OC(n4cnc5c(N)ncnc54)C(OP(=O)(O)O)C3O)C(O)C2O)c1 (stereo not given) [NADP+]
9.3 min | CC(=O)N[C@H]1C(O)O[C@H](CO)[C@@H](O)[C@@H]1O (stereo partly drawn) [N-Acetyl-D-glucosamine]
16.5 min | O=P(O)(O)OCC1OC(OP(=O)(O)OP(=O)(O)O)C(O)C1O [PRPP (5-Phospho-alpha-D-ribose 1-diphosphate)]
6.6 min | Nc1ncnc2nc[nH]c12 [Adenine]
10.3 min | NC(Cc1ccc(O)cc1)C(=O)O (stereo not given) [Tyrosine]
9.1 min | Nc1ccn(C2OC(CO)C(O)C2O)c(=O)n1 (stereo not given) [Cytidine]

LC retention time | Compound
11.6 min | CC(=O)NC(CCC(=O)O)C(=O)O (stereo not given) [N-Acetyl-glutamate]
12 min | OCC1OC(O)C(O)C(O)C1O (stereo not given) [Glucose]
12.8 min | CC(=O)NC1C(OP(=O)(O)OP(=O)(O)OCC2OC(n3ccc(=O)[nH]c3=O)C(O)C2O)OC(CO)C(O)C1O (stereo not given) [UDP-acetyl-glucosamine]
9.4 min | Cc1cc2nc3c(=O)[nH]c(=O)nc-3n(CC(O)C(O)C(O)COP(=O)(O)OP(=O)(O)OCC3OC(n4cnc5c(N)ncnc54)C(O)C3O)c2cc1C (stereo not given) [FAD]
22.1 min | CNCCCCC(N)C(=O)O (stereo not given) [Methyl-lysine]
9.2 min | OCC1OCC(O)C(O)C1O (stereo not given) [1,5-Anhydroglucitol]
10.5 min | CC(=O)NCCCCC([NH3+])C(=O)[O-] (stereo not given) [N6-Acetyl-lysine]
12.6 min | O=c1ccn(C2OC(COP(=O)(O)O)C(O)C2O)c(=O)[nH]1 (stereo not given) [UMP]
14.7 min | Nc1ccn(C2OC(COP(=O)(O)OP(=O)(O)O)C(O)C2O)c(=O)n1 (stereo not given) [CDP]
10.7 min | O=c1[nH]c(=O)c2[nH]c(=O)[nH]c2[nH]1 [Urate]
15.5 min | O=P(O)(O)OCC1OC(O)(COP(=O)(O)O)C(O)C1O (stereo not given) [Fructose-1,6-diphosphate]
12 min | O=C(O)CCCC(=O)O [Glutarate]
16.3 min | NC(CO)Cc1cnc[nH]1 (stereo not given) [Histidinol]
12.1 min | C[N+](C)(C)CCOP(=O)([O-])OCC(O)CO (stereo not given) [Glycerophosphocholine]
7.1 min | Cn1c(N)nc2c(ncn2C2OC(CO)C(O)C2O)c1=O (stereo not given) [1-Methyl-guanosine]
7.2 min | Nc1ccc(C(=O)O)cc1 [4-Aminobenzoate]
23.3 min | NCCCCC(N)C(=O)O (stereo not given) [Lysine]
6 min | CN(C)c1nc2c(ncn2C2OC(CO)C(O)C2O)c(=O)[nH]1 (stereo not given) [Dimethyl-guanosine]
13.2 min | CC(O)(CC(=O)O)CC(=O)SCCNC(=O)CCNC(=O)C(O)C(C)(C)COP(=O)(O)OP(=O)(O)OCC1OC(n2cnc3c(N)ncnc32)C(O)C1OP(=O)(O)O (stereo not given) [HMG-CoA]
11.6 min | NC1C(O)OC(CO)C(O)C1O (stereo not given) [Glucosamine]
15.5 min | O=C(O)C=C(CC(=O)O)C(=O)O [cis-Aconitate]
9.7 min | C[NH+](C)C(Cc1cnc[nH]1)C(=O)[O-] (stereo not given) [Dimethyl-histidine]

Compound | LC retention time
CN(CC(=O)O)C(N)=NP(=O)(O)O [Phosphocreatine] | 12.7 min
